By IC50 is commonly meant the concentration that inhibits the measured activity by half. As usually defined, the melting point is the temperature, or range, at which the solid turns liquid. As usually defined, the EC50 is the concentration giving half of the maximal effect.

Series [1] relates to secretion of cytokine IL-8 in human monocyte cell line THP-1. Kind of series: inhibition of LPS-triggered IL-8 secretion in THP-1 cells (ELISA). It counts as cell-based. On the set-up: Inhibition of IL-8 Secretion Efficacy: concentration or dose not given beside the values. The conditions noted are these: THP-1, LPS-triggered; for IC50: Homo sapiens. How it is done:
The concentration of the cytokines was determined in the supernatant with use of commercially available ELISA kits.
The potency of the inflammation inhibition is determined by the inhibition of the secretion of cytokine IL-8 in a cellular test. […] The concentration of the cytokine was determined in the supernatant by commercially available ELISA kits. In this connection, the compounds of formula I show a high to very high potency and action (>50%) in the inhibition (see Table 4). The potency of the racemates is considerably lower than that of the pure enantiomers.

Another series deals with T1, human GR (Homo sapiens, UniProt P04150).
T1 construct: made in house; host or cells: Sf9 cells infected with recombinant baculovirus (cytosol preparation)
T1 sequence (P04150 1-777): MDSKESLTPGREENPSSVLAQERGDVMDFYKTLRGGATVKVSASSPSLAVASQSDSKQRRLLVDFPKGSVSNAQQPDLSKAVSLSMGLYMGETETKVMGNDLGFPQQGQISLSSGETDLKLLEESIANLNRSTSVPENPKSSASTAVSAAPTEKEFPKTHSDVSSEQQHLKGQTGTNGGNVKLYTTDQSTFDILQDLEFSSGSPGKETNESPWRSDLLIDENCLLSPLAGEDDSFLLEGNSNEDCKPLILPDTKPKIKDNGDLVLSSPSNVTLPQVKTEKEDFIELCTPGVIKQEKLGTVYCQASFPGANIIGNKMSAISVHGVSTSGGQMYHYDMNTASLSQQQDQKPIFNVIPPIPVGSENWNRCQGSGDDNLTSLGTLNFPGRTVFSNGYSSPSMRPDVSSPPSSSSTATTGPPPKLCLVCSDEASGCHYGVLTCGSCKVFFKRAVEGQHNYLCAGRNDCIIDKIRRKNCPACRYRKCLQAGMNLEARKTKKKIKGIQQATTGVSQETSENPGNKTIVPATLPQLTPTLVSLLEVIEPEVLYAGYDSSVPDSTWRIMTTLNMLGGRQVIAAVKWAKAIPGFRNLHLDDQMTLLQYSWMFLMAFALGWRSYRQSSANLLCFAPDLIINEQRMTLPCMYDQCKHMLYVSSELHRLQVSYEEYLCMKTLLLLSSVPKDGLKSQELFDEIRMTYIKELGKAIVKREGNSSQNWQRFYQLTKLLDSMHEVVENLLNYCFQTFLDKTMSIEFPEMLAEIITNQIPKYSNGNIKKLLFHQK
The series is described as follows: glucocorticoid receptor (GR) binding test, cytosol of Sf9 cells, [3H]-dexamethasone. The conditions noted are these: human GR from Sf9 cytosol. The text has this: The binding of substances to the glucocorticoid receptor (GR) is examined with the aid of a recombinantly produced receptor. Cytosol preparations of Sf9 cells, which had been infected with recombinant baculoviruses, which code for the GR, are used for the binding studies.

In the next series the target is T2, GR (IL-6 promoter) (Homo sapiens, UniProt P04150).
T2 sequence (P04150 1-777): T1 sequence (P04150 1-777)
Kind of series: reporter gene test in HeLa cells, transrepression, IL-6 promoter-luciferase. Particulars: for Emax: HeLa, read-out: Transrepression (TR)(IL-6-Promoter) Efficacy. In general terms: A reporter such as luciferase makes a cellular process visible.

In series [2] the test system is croton oil-induced inflammation. The series is described as follows: croton oil-induced ear inflammation, edema formation in mice. The class given is in vivo. Particulars: systemic, two hours before croton oil, ear weight. The protocol: The antiinflammatory actions of the compounds of general formula I were tested in the animal experiment by tests in the croton oil-induced inflammation in rats and mice (J. Exp. Med. (1995), 182, 99–108). In this connection, croton oil in ethanolic solution was administered topically to the animals' ears. The test substances were also administered topically or systemically simultaneously with or two hours before the croton oil. After 16–24 hours, the ear weight was measured as a yardstick of the inflammatory edema, the peroxidase activity was measured as a yardstick of the invasions of granuloctyes, and the elastase activity was measured as a yardstick of the invasion of neutrophilic granuloctyes.
The antiinflammatory action of the compounds of general formula I were tested in an animal experiment in croton oil-induced inflammation in mice and in rats (J. Exp. Med. (1995), 182, 99–108). In this connection, croton oil in ethanolic solution was administered topically to the animals' ears. The test substances were systemically administered for two hours before the croton oil. After 16–24 hours, the ear weight was measured as a yardstick for the inflammatory edema.

Series [3] deals with T3, GR (collagenase promoter) (Homo sapiens, UniProt P04150).
T3 construct: endogenous in cells; host or cells: HeLa cells stably transfected with promoter-luciferase reporters (MMTV, IL-6 or collagenase promoter)
T3 sequence (P04150 1-777): T1 sequence (P04150 1-777)
The series is described as follows: reporter gene test in HeLa cells, transrepression, collagenase promoter-luciferase. It counts as cell-based. The conditions noted are these: TPA-induced; for IC50: read-out: Transrepression (TR)(Collagenase Promoter) IC50.

The target of the next series is T4, GR (MMTV promoter) (Homo sapiens, UniProt P04150).
T4 sequence (P04150 1-777): T1 sequence (P04150 1-777)
The series is described as follows: reporter gene test in HeLa cells, transactivation, MMTV promoter-luciferase. Particulars: for Transactivating (TA)(MMTV-Promoter) Efficacy: HeLa cells, luciferase; for TA:TR EC50:IC50: MMTV promoter EC50 : IL-6 promoter IC50.

The subject of series [4] is tyrosinamino transferase (TAT). Kind of series: induction of tyrosinamino transferase (TAT) in liver homogenates. It counts as in vivo. Particulars: mice, 8 hours after administration, vs untreated control. An excerpt:
One of the most frequent undesirable effects of a glucocorticoid therapy is the so-called “steroid diabetes” [cf. Hatz, H. J., Glucocorticoide: Immunologische Grundlagen, Pharmakologie und Therapierichtlinien [Glucocorticoids: Immunological Bases, Pharmacology and Therapy Guidelines], Wissenschaftliche Verlagsgesellschaft mbH, Stuttgart, 1998]. The reason for this is the stimulation of the gluconeogenesis in the liver by induction of the enzymes that are responsible for this effect and by free amino acids, which develop from the degradation of proteins (catabolic action of glucocorticoids). A key enzyme of the catabolic metabolism in the liver is the tyrosinamino transferase (TAT). The activity of this enzyme can be determined photometrically from liver homogenates and represents a good yardstick of the undesirable metabolic actions of the glucocorticoids. To measure the TAT induction, the animals are sacrificed 8 hours after the test substances are administered, the livers are removed, and the TAT activity in the homogenate is measured.
As parameters for the side effects of the catabolic metabolism induced by steroids, the activity of the enzyme tyrosinamino transferase (TAT) was determined by photometry from liver homogenates. The activity represents a good yardstick for the undesirable catabolic actions of the glucocorticoids. To measure the TAT induction, the animals (mice and rats) are killed 8 hours after the test substance is administered, the liver is removed, and the TAT activity is measured in the homogenates.

Procedure for GR (IL-6 promoter): (§1) The MMTV promoter (transactivation) and the IL-6 promoter (transrepression) in each case were upstream to the gene that codes for the luciferase. By means of the photometric determination of the enzyme activity of the luciferase, it was possible to measure the activation of the transcription (MMTV-promoter-construct) or the inhibition of the transcription (IL-6-promoter-construct) by the GR.
(§2) This dissociation of the mechanisms of action was determined with the aid of the reporter gene test in stable transfixed human HeLa cells. To determine the transactivation induced by the GR, the MMTV promoter, which is set before a luciferase gene, is used. Via the photometric determination of the luciferase activity, it was possible to determine the transactivation activities of the GR after binding the test compounds. The inhibition of the transcription of the luciferase gene, induced by tetradecanoyl-phorbol acetate (TPA) under the control of the IL-6 promoter or the collagenase promoter (transpression) by the GR after binding the test substances, was also determined by the measurement of luciferase activity in HeLa cells.
Procedure for GR (MMTV promoter): as §1, §2

Take `Cc1noc(=O)c2ccc(NC(=O)C(O)(CC(C)(C)c3cccc4c3OCO4)C(F)(F)F)cc12` (racemic) [Example 1, (±)-6-[4-(Benzo[1,3]dioxol-4-yl)-2-hydroxy-4-methyl-2-trifluoromethyl-valeroyl-amino]-4-methyl-2,3-benzoxazin-1-one]: in series [1], half-maximal inhibition (IC50) was put at 76 nM and the “Inhibition of IL-8 Secretion Efficacy” value worked out at 51%. The same molecule came in with an IC50 on human GR of 1.5 nM. Moreover, on GR (IL-6 promoter), the IC50 was 2 nM and the Emax was 84%.

Turning to `Cc1noc(=O)c2ccc(NC(=O)C(O)(CC3(c4cccc5c4OCC5)CC3)C(F)(F)F)cc12` (racemic) [Example 12], in series [1], the IC50 was 42 nM and the “Inhibition of IL-8 Secretion Efficacy” value amounted to 52%. The IC50 at human GR was 0.85 nM.

Turning to `Cc1noc(=O)c2ccc(NC(=O)C(O)(CC(C)(C)c3cc(F)cc4c3OCO4)C(F)(F)F)cc12` (racemic) [Example 18], the melting point fell in the range of 215 to 217 °C. Also, on GR (IL-6 promoter), the IC50 worked out at 5.7 nM and the Emax was 63%.

As to `Cc1noc(=O)c2ccc(NC(=O)C(O)(CC3(c4cc(F)ccc4O)CCC3)C(F)(F)F)cc12` (racemic) [Example 28], the melting point was found to be 138 °C. In addition, in series [1], half-maximal inhibition (IC50) was put at 860 nM and the “Inhibition of IL-8 Secretion Efficacy” value is 100%. Further, the IC50 on human GR was 2 nM.

Molecule `Cc1noc(=O)c2ccc(NC(=O)C(O)(CC3(c4cccc5c4OCC5)CC3)C(F)(F)F)cc12` (single isomer, unassigned) [Example 13] gave a melting point of 249 to 255 °C. For the same molecule, in series [1], the IC50 stood at 37 nM and the “Inhibition of IL-8 Secretion Efficacy” value worked out at 68%. At human GR, the IC50 was less than 0.3 nM.

For `Cc1noc(=O)c2ccc(NC(=O)C(O)(CC3(c4cc(F)ccc4O)CCC3)C(F)(F)F)cc12` (single isomer, unassigned) [Example 29], in series [2], the “Edema Inhibition with 3 mg/kg” value amounted to 34% and the “Edema Inhibition with 30 mg/kg” value is 66%. In addition, in series [3], the “Transrepression (TR)(Collagenase Promoter) Efficacy” value is 105% and the IC50 was 3.4 nM. Moreover, in series [1], the IC50 worked out at 31 nM and the “Inhibition of IL-8 Secretion Efficacy” value stood at 86%. At GR (MMTV promoter), a half-maximal effect (EC50) was put at 13 nM, the “Transactivating (TA)(MMTV-Promoter) Efficacy” value is 59% and the “TA:TR EC50:IC50” value is given as 8.7. In addition, in series [4], the “Induction Factor for TAT with 3 mg/kg” value turned out to be 1.0 and the “Induction Factor for TAT with 30 mg/kg” value came out at 2.0. This molecule also displayed an IC50 on human GR of 0.35 nM. Besides, on GR (IL-6 promoter), half-maximal inhibition (IC50) was put at 1.5 nM and the Emax was 79%.

On human GR, `COc1c(F)cccc1C1(CC(O)(C(=O)Nc2ccc3c(=O)onc(C)c3c2)C(F)(F)F)CCC1` (single isomer, unassigned) [Example 32] yielded an IC50 of 3 nM. At GR (IL-6 promoter), the IC50 stood at 2.2 nM and the Emax turned out to be 76%.

As for `Cc1noc(=O)c2ccc(NC(=O)C(O)(CC(C)(C)c3cccc4c3OCO4)C(F)(F)F)cc12` (single isomer, unassigned; (+)) [Example 2, (+)-6-[4-(Benzo[1,3]dioxol-4-yl)-2-hydroxy-4-methyl-2-trifluoromethyl-valeroyl-amino]-4-methyl-2,3-benzoxazin-1-one], in series [2], the “Edema Inhibition with 3 mg/kg” value worked out at 55% and the “Edema Inhibition with 30 mg/kg” value came to 86%. Moreover, in series [3], the “Transrepression (TR)(Collagenase Promoter) Efficacy” value amounted to 92% and the IC50 came to 3.7 nM. For the same molecule, in series [1], the midpoint of inhibition, the IC50, lay at 29 nM and the “Inhibition of IL-8 Secretion Efficacy” value amounted to 57%. Besides, on GR (MMTV promoter), the EC50 came to 11 nM, the “Transactivating (TA)(MMTV-Promoter) Efficacy” value was determined as 71% and the “TA:TR EC50:IC50” value turned out to be 11.9. In series [4], the “Induction Factor for TAT with 3 mg/kg” value amounted to 1.4 and the “Induction Factor for TAT with 30 mg/kg” value is 2.4. For the same molecule, on human GR, the IC50 was less than 0.3 nM. For the same molecule, on GR (IL-6 promoter), the IC50 is 0.92 nM and the Emax came to 66%.

Values taken from patent US7112584B2, “Nonsteroidal antiinflammatory agents” (Schering AG, priority 2002, dated 2006).
